Target: T1, voltage-dependent T-type calcium channel subunit alpha-1G (Cav3.2) (Homo sapiens, UniProt O95180)
T1 construct: expressed in transfected cells; host or cells: HEK293
Experiment: FLIPR calcium flux assay, HEK293 cells recombinantly expressing Cav3.2
Format: cell-based
Conditions: Cav3.2-channel, Fluo-4-AM, 3 min incubation, stimulation with 10 mM CaCl2
Method in brief: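 HEK293 cells stably expressing human Cav3.2 were loaded with Fluo-4-AM. Compounds diluted in TEAC buffer (pH 7.2) were preincubated for 3 min, then Ca2+ entry was triggered by 10 mM final CaCl2. Inhibition curves were fitted sigmoidally to the area under the fluorescence trace.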

T1 sequence (O95180 whole entry): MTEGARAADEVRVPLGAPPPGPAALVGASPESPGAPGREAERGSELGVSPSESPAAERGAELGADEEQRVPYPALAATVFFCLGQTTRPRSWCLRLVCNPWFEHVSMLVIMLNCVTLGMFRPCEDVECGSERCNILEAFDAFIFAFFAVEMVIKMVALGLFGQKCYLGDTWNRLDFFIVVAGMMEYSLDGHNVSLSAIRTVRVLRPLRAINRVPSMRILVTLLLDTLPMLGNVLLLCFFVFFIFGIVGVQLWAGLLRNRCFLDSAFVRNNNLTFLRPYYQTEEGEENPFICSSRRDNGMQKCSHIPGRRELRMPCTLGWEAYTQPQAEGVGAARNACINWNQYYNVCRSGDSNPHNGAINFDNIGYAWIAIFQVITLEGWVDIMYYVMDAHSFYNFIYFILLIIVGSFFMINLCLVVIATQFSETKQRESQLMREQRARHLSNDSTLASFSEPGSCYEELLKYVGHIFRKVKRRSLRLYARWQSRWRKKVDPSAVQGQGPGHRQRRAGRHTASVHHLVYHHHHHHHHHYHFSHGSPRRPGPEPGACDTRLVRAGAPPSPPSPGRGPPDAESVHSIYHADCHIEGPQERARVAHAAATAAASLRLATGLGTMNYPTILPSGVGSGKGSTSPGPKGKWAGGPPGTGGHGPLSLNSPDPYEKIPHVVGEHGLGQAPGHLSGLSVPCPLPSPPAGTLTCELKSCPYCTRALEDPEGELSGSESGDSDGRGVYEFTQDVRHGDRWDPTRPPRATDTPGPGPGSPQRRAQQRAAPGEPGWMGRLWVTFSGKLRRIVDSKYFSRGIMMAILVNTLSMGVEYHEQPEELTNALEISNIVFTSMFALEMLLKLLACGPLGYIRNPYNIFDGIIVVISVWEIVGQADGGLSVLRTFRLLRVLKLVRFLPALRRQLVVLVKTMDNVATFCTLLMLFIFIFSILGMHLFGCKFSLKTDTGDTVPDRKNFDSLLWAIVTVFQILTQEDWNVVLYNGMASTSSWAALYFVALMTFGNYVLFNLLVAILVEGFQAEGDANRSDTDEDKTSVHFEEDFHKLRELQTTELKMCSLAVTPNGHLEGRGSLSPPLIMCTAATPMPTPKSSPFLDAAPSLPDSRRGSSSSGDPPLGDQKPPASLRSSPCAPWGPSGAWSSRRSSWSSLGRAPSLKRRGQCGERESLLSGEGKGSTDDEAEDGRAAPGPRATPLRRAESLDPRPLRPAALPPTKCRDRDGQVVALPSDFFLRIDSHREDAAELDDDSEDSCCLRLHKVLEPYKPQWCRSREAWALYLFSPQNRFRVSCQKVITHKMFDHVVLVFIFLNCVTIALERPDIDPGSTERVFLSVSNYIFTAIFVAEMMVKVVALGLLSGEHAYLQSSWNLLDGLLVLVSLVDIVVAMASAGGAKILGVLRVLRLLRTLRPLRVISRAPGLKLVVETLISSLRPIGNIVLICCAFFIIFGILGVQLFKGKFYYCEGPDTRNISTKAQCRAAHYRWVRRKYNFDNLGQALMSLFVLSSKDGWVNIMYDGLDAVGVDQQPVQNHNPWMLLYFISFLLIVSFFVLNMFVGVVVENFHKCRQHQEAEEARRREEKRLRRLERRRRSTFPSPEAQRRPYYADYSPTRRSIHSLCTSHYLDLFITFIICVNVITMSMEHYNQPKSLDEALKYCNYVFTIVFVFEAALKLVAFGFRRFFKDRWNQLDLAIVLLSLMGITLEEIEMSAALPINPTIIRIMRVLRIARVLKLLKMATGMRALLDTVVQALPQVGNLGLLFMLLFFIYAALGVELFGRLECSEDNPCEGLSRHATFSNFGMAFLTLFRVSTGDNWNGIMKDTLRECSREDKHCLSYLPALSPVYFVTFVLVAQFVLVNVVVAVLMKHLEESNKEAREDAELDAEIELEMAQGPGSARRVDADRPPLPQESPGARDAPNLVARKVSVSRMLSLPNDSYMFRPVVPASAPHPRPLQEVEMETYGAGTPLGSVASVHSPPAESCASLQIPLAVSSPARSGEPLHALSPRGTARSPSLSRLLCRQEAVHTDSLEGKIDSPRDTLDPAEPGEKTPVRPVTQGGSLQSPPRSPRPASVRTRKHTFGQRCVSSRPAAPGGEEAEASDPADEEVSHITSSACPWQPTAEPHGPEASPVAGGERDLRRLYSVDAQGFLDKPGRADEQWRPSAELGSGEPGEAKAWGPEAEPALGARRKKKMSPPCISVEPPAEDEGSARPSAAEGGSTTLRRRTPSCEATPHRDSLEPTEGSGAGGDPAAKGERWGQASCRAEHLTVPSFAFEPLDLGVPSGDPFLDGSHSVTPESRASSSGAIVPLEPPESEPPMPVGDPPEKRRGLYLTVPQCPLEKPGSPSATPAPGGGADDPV

Structure (SMILES) | IC50 [nM]
Cn1ncc2ccc(CC(=O)Nc3ccn(Cc4ccc(C#N)c(F)c4)n3)cc21 [Example 291, N-[1-(4-Cyano-3-fluoro-benzyl)-1H-pyrazol-3-yl]-2-(1-methyl-1H-indazol-6-yl)-acetamide] | 80
CN(C)c1ccc(CC(=O)Nc2ccn(Cc3ccc(F)cn3)n2)cc1 [Example 149, 2-(4-Dimethylamino-phenyl)-N-[1-(5-fluoro-pyridin-2-ylmethyl)-1H-pyrazol-3-yl]-acetamide] | 85
COc1ccc(Cn2ccc(NC(=O)Cc3ccc(N4CCCC4)nc3)n2)cc1 [Example 178, N-[1-(4-Methoxy-benzyl)-1H-pyrazol-3-yl]-2-(6-pyrrolidin-1-yl-pyridin-3-yl)-acetamide] | 99
CCn1ncc2cc(CC(=O)Nc3ccn(Cc4cc(F)c(C#N)c(F)c4)n3)ccc21 [Example 357, N-[1-(4-Cyano-3,5-difluoro-benzyl)-1H-pyrazol-3-yl]-2-(1-ethyl-1H-indazol-5-yl)-acetamide] | 34
COCCN(C)c1ccc(CC(=O)Nc2ccn(Cc3ccc(C#N)cc3)n2)cn1 [Example 181, N-[1-(4-Cyano-benzyl)-1H-pyrazol-3-yl]-2-{6-[(2-methoxy-ethyl)-methyl-amino]-pyridin-3-yl}-acetamide] | 272
COC(C)c1ccc(CC(=O)Nc2ccn(Cc3ccc(C#N)cc3)n2)cc1 (racemic) [Example 320, rac-N-[1-(4-Cyano-benzyl)-1H-pyrazol-3-yl]-2-[4-(1-methoxy-ethyl)-phenyl]-acetamide] | 99
N#Cc1ccc(Cn2ccc(NC(=O)Cc3ccc(N4CCC4)nc3)n2)nc1 [Example 102, 2-(6-Azetidin-1-yl-pyridin-3-yl)-N-[1-(5-cyano-pyridin-2-ylmethyl)-1H-pyrazol-3-yl]-acetamide] | 7050
CN(C)c1ccc(CC(=O)Nc2ccn(Cc3ccc(OC(F)F)cc3)n2)cn1 [Example 36, N-[1-(4-Difluoromethoxy-benzyl)-1H-pyrazol-3-yl]-2-(6-dimethylamino-pyridin-3-yl)-acetamide] | 160
CC1(COc2ccc(CC(=O)Nc3ccn(Cc4ccc(C#N)c(F)c4)n3)cc2)CC(F)(F)C1 [Example 290, N-[1-(4-Cyano-3-fluoro-benzyl)-1H-pyrazol-3-yl]-2-[4-(3,3-difluoro-1-methyl-cyclobutylmethoxy)-phenyl]-acetamide] | 39
N#Cc1ccc(Cn2ccc(NC(=O)Cc3ccc(F)cc3OCC(F)(F)F)n2)nc1 [Example 333, N-[1-(5-Cyano-pyridin-2-ylmethyl)-1H-pyrazol-3-yl]-2-[4-fluoro-2-(2,2,2-trifluoro-ethoxy)-phenyl]-acetamide] | 2790
O=C(Cc1ccc(OCC2(F)COC2)cc1)Nc1ccn(Cc2ccc(F)c(F)c2)n1 [Example 245, N-[1-(3,4-Difluoro-benzyl)-1H-pyrazol-3-yl]-2-[4-(3-fluoro-oxetan-3-ylmethoxy)-phenyl]-acetamide] | 30
O=C(Cc1ccc(N2CCC2)nc1)Nc1ccn(Cc2ccc(F)cc2)n1 [Example 103, 2-(6-Azetidin-1-yl-pyridin-3-yl)-N-[1-(4-fluoro-benzyl)-1H-pyrazol-3-yl]-acetamide] | 145
N#Cc1cc(Cn2ccc(NC(=O)Cc3ccc(OC4CC(F)(F)C4)cc3)n2)ccc1F [Example 281, N-[1-(3-Cyano-4-fluoro-benzyl)-1H-pyrazol-3-yl]-2-[4-(3,3-difluoro-cyclobutoxy)-phenyl]-acetamide] | 21
N#Cc1ccc(Cn2ccc(NC(=O)Cc3ccc(OC4COC4)cc3)n2)cc1 [Example 251, N-[1-(4-Cyano-benzyl)-1H-pyrazol-3-yl]-2-[4-(oxetan-3-yloxy)-phenyl]-acetamide] | 303
N#Cc1ccc(Cn2ccc(NC(=O)Cc3ccc(OCC4COC4)cc3)n2)cc1 [Example 286, N-[1-(4-Cyano-benzyl)-1H-pyrazol-3-yl]-2-[4-(oxetan-3-ylmethoxy)-phenyl]-acetamide] | 393
COCCOc1ccc(Cn2ccc(NC(=O)Cc3ccc(C(C)C)cc3)n2)nc1 [Example 104, 2-(4-Isopropyl-phenyl)-N-{1-[5-(2-methoxy-ethoxy)-pyridin-2-ylmethyl]-1H-pyrazol-3-yl}-acetamide] | 4520
COC(C)c1ccc(CC(=O)Nc2ccn(Cc3ccc(C#N)cn3)n2)cc1 (racemic) [Example 203, rac-N-[1-(5-Cyano-pyridin-2-ylmethyl)-1H-pyrazol-3-yl]-2-[4-(1-methoxy-ethyl)-phenyl]acetamide] | 1260
O=C(Cc1ccc(-c2cnccn2)cc1)Nc1ccn(Cc2ccc(F)cc2)n1 [Example 81, N-[1-(4-Fluoro-benzyl)-1H-pyrazol-3-yl]-2-(4-pyrazin-2-yl-phenyl)-acetamide] | 131
COCCN(C)c1ccc(CC(=O)Nc2ccn(Cc3ccc(F)cc3)n2)cn1 [Example 182, N-[1-(4-Fluoro-benzyl)-1H-pyrazol-3-yl]-2-{6-[(2-methoxy-ethyl)-methyl-amino]-pyridin-3-yl}-acetamide] | 65
N#Cc1ccc(Cn2ccc(NC(=O)Cc3ccc(C4(C#N)CC(F)(F)C4)cc3)n2)nc1 [Example 390, 2-[4-(1-Cyano-3,3-difluoro-cyclobutyl)-phenyl]-N-[1-(5-cyano-pyridin-2-ylmethyl)-1H-pyrazol-3-yl]-acetamide] | 47
CN(CC1CC1)c1ccc(CC(=O)Nc2ccn(Cc3ccc(C#N)cc3)n2)cn1 [Example 186, N-[1-(4-Cyano-benzyl)-1H-pyrazol-3-yl]-2-[6-(cyclopropylmethyl-methyl-amino)-pyridin-3-yl]-acetamide] | 41
Cn1cnc2cc(CC(=O)Nc3ccn(Cc4ccc(F)c(F)c4)n3)ccc21 [Example 230, N-[1-(3,4-Difluoro-benzyl)-1H-pyrazol-3-yl]-2-(1-methyl-1H-benzoimidazol-5-yl)-acetamide] | 255
CN(C)c1ccc(CC(=O)Nc2ccn(Cc3ccc(C#N)cc3)n2)cn1 [Example 15, N-[1-(4-Cyano-benzyl)-1H-pyrazol-3-yl]-2-(6-dimethylamino-pyridin-3-yl)-acetamide] | 374
Cn1ncc2cc(CC(=O)Nc3ccn(Cc4ccc(C#N)cc4)n3)ccc21 [Example 252, N-[1-(4-Cyano-benzyl)-1H-pyrazol-3-yl]-2-(1-methyl-1H-indazol-5-yl)-acetamide] | 56
Cc1cc(CC(=O)Nc2ccn(Cc3cc(C#N)c(F)cn3)n2)cnc1OCC(F)(F)F [Example 419, N-[1-(4-Cyano-5-fluoro-pyridin-2-ylmethyl)-1H-pyrazol-3-yl]-2-[5-methyl-6-(2,2,2-trifluoro-ethoxy)-pyridin-3-yl]-acetamide] | 9430
CCN(C)c1ccc(CC(=O)Nc2ccn(Cc3ccc(C#N)cn3)n2)cn1 [Example 171, N-[1-(5-Cyano-pyridin-2-ylmethyl)-1H-pyrazol-3-yl]-2-[6-(ethyl-methyl-amino)-pyridin-3-yl]-acetamide] | 980

The remaining lines, values ahead:

IC50 [nM] | Structure (SMILES)
20 | Cn1ccc2ccc(CC(=O)Nc3ccn(Cc4ccc(C#N)cc4)n3)cc21 [Example 297, N-[1-(4-Cyano-benzyl)-1H-pyrazol-3-yl]-2-(1-methyl-1H-indol-6-yl)-acetamide]
3.4 | CC(C)(C)c1ccc(CC(=O)Nc2ccn(Cc3ccc(C#N)cc3)n2)cc1 [Example 271, 2-(4-tert-Butyl-phenyl)-N-[1-(4-cyano-benzyl)-1H-pyrazol-3-yl]-acetamide]
3.1 | Cn1ccc2cc(CC(=O)Nc3ccn(Cc4ccc(F)c(F)c4)n3)ccc21 [Example 220, N-[1-(3,4-Difluoro-benzyl)-1H-pyrazol-3-yl]-2-(1-methyl-1H-indol-5-yl)-acetamide]
5 | CN(C)c1ccc(CC(=O)Nc2ccn(Cc3ccc(F)c(OC(F)(F)F)c3)n2)cc1 [Example 22, 2-(4-Dimethylamino-phenyl)-N-[1-(4-fluoro-3-trifluoromethoxy-benzyl)-1H-pyrazol-3-yl]-acetamide]
21 | N#Cc1cc(Cn2ccc(NC(=O)Cc3ccc(S(F)(F)(F)(F)F)cc3)n2)ccc1F [Example 334, N-(1-(3-cyano-4-fluorobenzyl)-1H-pyrazol-3-yl)-2-(4-(pentafluoro-λ^6-sulfanyl)phenyl)acetamide]
5.8 | CO[C@H](C)c1ccc(CC(=O)Nc2ccn(Cc3ccc(F)c(F)c3)n2)cc1 (single isomer, unassigned) [Example 232]
17 | Cc1cc(CC(=O)Nc2ccn(Cc3cc(C#N)c(F)cn3)n2)cc(C)c1OCC(F)(F)F [Example 416, N-[1-(4-Cyano-5-fluoro-pyridin-2-ylmethyl)-1H-pyrazol-3-yl]-2-[3,5-dimethyl-4-(2,2,2-trifluoro-ethoxy)-phenyl]-acetamide]
5.3 | CCc1cc(CC(=O)Nc2ccn(Cc3ccc(F)c(C#N)n3)n2)ccc1OCC(F)(F)F [Example 412, N-[1-(6-Cyano-5-fluoro-pyridin-2-ylmethyl)-1H-pyrazol-3-yl]-2-[3-ethyl-4-(2,2,2-trifluoro-ethoxy)-phenyl]-acetamide]
11 | O=C(Cc1ccc(N2CC[C@@H](F)C2)cc1)Nc1ccn(Cc2ccc(F)cc2)n1 [Example 70, N-[1-(4-Fluoro-benzyl)-1H-pyrazol-3-yl]-2-[4-((R)-3-fluoro-pyrrolidin-1-yl)-phenyl]-acetamide]
21 | COC1(c2ccc(CC(=O)Nc3ccn(Cc4ccc(F)c(F)c4)n3)cc2)COC1 [Example 231, N-[1-(3,4-Difluoro-benzyl)-1H-pyrazol-3-yl]-2-[4-(3-methoxy-oxetan-3-yl)-phenyl]-acetamide]
8.7 | Cc1cc(CC(=O)Nc2ccn(Cc3ccc(F)c(C#N)n3)n2)ccc1OCCC(F)(F)F [Example 420, N-[1-(6-Cyano-5-fluoro-pyridin-2-ylmethyl)-1H-pyrazol-3-yl]-2-[3-methyl-4-(3,3,3-trifluoro-propoxy)-phenyl]-acetamide]
22 | CC(C)(C)c1ccc(CC(=O)Nc2ccn(Cc3cc(F)c(C#N)c(F)c3)n2)cc1 [Example 352, 2-(4-tert-Butyl-phenyl)-N-[1-(4-cyano-3,5-difluoro-benzyl)-1H-pyrazol-3-yl]-acetamide]
